Experimental data: paper PMC6977461 (Chemical Science, 2019)

What was measured:
[1] = biological target: GLP-1R (Homo sapiens, UniProt P43220); test: cAMP production functional assay in HEK293 cells transfected with GLP-1R (Method C1); assay type: cell-based; parameters: host or cells: HEK-293T
Description: (§1)  HEK-293T cells (Multispan inc., lot#.DC1267-062017) were suspended in cell culture media
(§2) (DMEM 1X + GlutaMAX (Gibco 31966-021)) complemented with FBS 10% (Sigma Aldrich
(§3)  βTC6 cells were suspended in HBSS buffer (Invitrogen) complemented with 20 mM HEPES (pH
(§4) In vitro pharmacology on HEK-293T cells (EC50: Method C1)
(§5) cells (Multispan inc., lot#.DC1267-062017) was determined by measuring their effects on cAMP
(§6) production using the HTRF detection method (performed by UREkA SARL). The cells were distributed
(§7) in 384-well microplates at a density of 1.0x10^4 cells/well. Stock solutions of the test compounds or the
(§8) reference agonist were prepared at a concentration of 1 mM in DMSO. Then, compounds to be tested
(§9) were diluted in cell culture media and transferred to the plate containing the cells to reach final assay

[2] = biological target: T1, mouse GLP-1 receptor (Mus musculus, UniProt O35659); test: cAMP production in βTC6 cells expressing GLP-1R endogenously (Method C2); assay type: cell-based
T1 construct: βTC6 cells which express GLP-1R endogenously; host or cells: βTC6 cells
T1 sequence (O35659 22-463): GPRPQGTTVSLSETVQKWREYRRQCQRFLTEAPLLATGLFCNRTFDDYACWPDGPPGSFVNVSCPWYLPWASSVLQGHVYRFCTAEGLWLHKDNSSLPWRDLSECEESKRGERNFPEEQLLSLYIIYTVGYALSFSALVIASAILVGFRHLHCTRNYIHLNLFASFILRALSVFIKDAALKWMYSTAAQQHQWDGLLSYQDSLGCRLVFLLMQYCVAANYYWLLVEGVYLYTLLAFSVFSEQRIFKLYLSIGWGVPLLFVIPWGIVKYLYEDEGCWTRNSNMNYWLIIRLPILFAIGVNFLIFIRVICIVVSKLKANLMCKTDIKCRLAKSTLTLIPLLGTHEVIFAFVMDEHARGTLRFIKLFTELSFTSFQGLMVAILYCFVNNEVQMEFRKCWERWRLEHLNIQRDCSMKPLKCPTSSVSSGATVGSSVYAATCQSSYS
Description: as §1, §2, §3, §4, §5, §6, §7, §8, §9

[3] = biological target: T1, mouse GLP-1 receptor; test: radioligand binding assay, [125I]GLP-1(7-36), βTC6 cell membrane homogenates
Description: In vitro pharmacology: Affinity (IC50)
and 1% BSA. […] Following
incubation, the samples are filtered rapidly under vacuum through glass fiber filters (GF/B, Packard)
presoaked with 0.3% PEI and rinsed several times with an ice-cold buffer containing 50 mM Tris-HCl
and 500 mM NaCl using a 96-sample cell harvester (Unifilter, Packard). The filters are dried then
counted for radioactivity in a scintillation counter (Topcount, Packard) using a scintillation cocktail
(Microscint 0, Packard). The results are expressed as a percent inhibition of the control radioligand
at several concentrations to obtain a competition curve from which its IC50 is calculated using

[4] = mouse plasma degradation assay (Methods MP1-MP3); assay type: in vitro ADME; conditions: mouse plasma diluted 1/1 with PBS; mouse plasma/PBS pH 7.4 (1/1), 5 µM, 37 °C, acetonitrile quench, LC-MS extracted ion chromatogram; MP1 for 2-8, MP2 for 9-11, MP3 for 12-14; mean, n = 3; read-out: Mouse plasma t1/2 (converted)
Description: The oligomer was then diluted 1/50 with a solution of plasma/PBS pH 7.4 (1/1) to afford a final concentration of 5μM and incubated at 37°C. […] (t = 0 min was determined using the reaction without plasma). The samples were frozen at -80°C before analysis. […] The supernatant was analyzed by LC-MS. The time course of oligomer degradation was determined by integrating the area of the peak in the extracted ion chromatogram. […] The oligomer was then diluted 1/50 with a solution of plasma/PBS pH 7.4 (1/1) to afford a final concentration of 5μM and incubated at 37°C. […] The oligomer was then diluted 1/50 with a solution of plasma/PBS pH 7.4 (1/1) to afford a final concentration of 5μM and incubated at 37°C. […] Animals. […] A standard chow diet (RM1 (E) 801492, SDS) and tap water were provided ad libitum. All animal protocols done by Physiogenex S.A.S were reviewed and approved by the local (Comité […] national ([…]

Sequence of GLP-1R (P43220 24-463): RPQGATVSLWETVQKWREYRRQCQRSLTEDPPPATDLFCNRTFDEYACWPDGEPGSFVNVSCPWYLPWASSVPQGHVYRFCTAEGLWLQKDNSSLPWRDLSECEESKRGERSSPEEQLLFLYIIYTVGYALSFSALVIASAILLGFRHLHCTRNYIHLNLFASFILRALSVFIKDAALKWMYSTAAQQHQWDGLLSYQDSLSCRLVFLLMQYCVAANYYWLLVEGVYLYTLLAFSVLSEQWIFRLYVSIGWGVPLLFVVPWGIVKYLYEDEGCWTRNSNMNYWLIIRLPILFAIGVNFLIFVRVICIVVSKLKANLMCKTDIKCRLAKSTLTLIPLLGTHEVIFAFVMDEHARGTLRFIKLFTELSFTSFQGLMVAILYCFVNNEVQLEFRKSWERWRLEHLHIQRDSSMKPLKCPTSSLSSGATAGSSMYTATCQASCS

In the case of `CC[C@H](C)[C@H](NC(=O)[C@H](Cc1ccccc1)NC(=O)[C@H](CCC(=O)O)NC(=O)[C@H](CCCCN)NC(=O)[C@H](C)NC(=O)[C@H](C)NC(=O)[C@H](CCC(N)=O)NC(=O)CNC(=O)[C@H](CCC(=O)O)NC(=O)[C@H](CC(C)C)NC(=O)[C@H](Cc1ccc(O)cc1)NC(=O)[C@H](CO)NC(=O)[C@H](CO)NC(=O)[C@@H](NC(=O)[C@H](CC(=O)O)NC(=O)[C@H](CO)NC(=O)[C@@H](NC(=O)[C@H](Cc1ccccc1)NC(=O)[C@@H](NC(=O)CNC(=O)[C@H](CCC(=O)O)NC(=O)NC[C@H](C)NC(=O)[C@@H](N)Cc1c[nH]cn1)[C@@H](C)O)[C@@H](C)O)C(C)C)C(=O)N[C@@H](C)C(=O)N[C@@H](Cc1c[nH]c2ccccc12)C(=O)N[C@@H](CC(C)C)C(=O)N[C@H](C(=O)N[C@@H](CCCCN)C(=O)NCC(=O)N[C@@H](CCCNC(=N)N)C(=O)NCC(N)=O)C(C)C` [compound 3], the EC50 ([1]; HEK-293T cells exogenously expressing human GLP-1R, cAMP by HTRF, 10 min at 37 °C, Method C1, mean, n = 3 (2: n = 6), read-out: EC50 (GLP-1R potency)) is reported as 0.0027 nM, the “Potency (%), percentage of potency compared to GLP-1-NH2” value ([1]; from EC50 in HEK293 GLP-1R cAMP assay) is reported as 117% and the “Potency (%), Table S1” value ([2]; from EC50 in βTC6 cAMP assay, footnote: compare to GLP-1-NH2 (2)) is reported as 70%. The EC50 ([2]; read-out: EC50 (GLP-1R potency), Table S1) was 0.14 nM, the IC50 [3] was 32 nM and the half-life at 5 µM [4] was 14.4 min.
